# Test system: Humane Glykogenphosphorylase a
# Assay: Glycogen phosphorylase a activity test (reverse direction, release of inorganic phosphate)
# Assay type: biochemical, human
# Conditions: 10 µM test substance; 40 min at room temperature; duplicate determinations
# Text: Glykogenphosphorylase a Aktivitätstest
# Der Effekt von Verbindungen auf die Aktivität der aktiven Form der Glykogenphosphorylase (GPa) wurde in der umgekehrten Richtung, durch Verfolgen der Glykogensynthese aus Glukose-1-Phosphat an Hand der Bestimmung der Freisetzung von anorganischem Phosphat, gemessen. Alle Reaktionen wurden als Doppelbestimmungen in Mikrotiterplatten mit 96-Vertiefungen (Half Area Plates, Costar Nr. 3696) durchgeführt, wobei die Änderung der Absorption auf Grund der Bildung des Reaktionsprodukts bei der weiter unten spezifizierten Wellenlänge in einem Multiskan Ascent Elisa Reader (Lab Systems, Finnland) gemessen wurde. Um die GPa Enzymaktivität in der umgekehrten Richtung zu messen, wurde die Umwandlung von Glukose-1-Phosphat in Glykogen und anorganisches Phosphat nach der allgemeinen Methode von Engers et al. (Engers HD, Shechosky S, Madsen NB, Can J Biochem 1970 Jul;48(7):746-754) mit folgenden Modifikationen gemessen: Humane Glykogenphosphorylase a (zum Beispiel mit 0,76 mg Protein / ml (Aventis Pharma Deutschland GmbH), gelöst in Pufferlösung E (25 mM β-Glyzerophosphat, pH 7,0, 1 mM EDTA und 1 mM Dithiotreitol) wurde mit Puffer T (50 mM Hepes, pH 7,0, 100 mM KCI, 2,5 mM. EDTA, 2,5 mM MgCl2·6H2O) und Zusatz von 5 mg/ml Glykogen auf eine Konzentration von 10 µg Protein/ml verdünnt. […]
row,% Inhibition bei 10 µM [%],Compound
1,3,CCOC(=O)c1ccc(NC(=O)NC(=O)c2c(F)cccc2F)cc1 [Vergleichsbeispiel A]
2,46,Cc1ccccc1C(=O)NC(=O)Nc1cc(C(=O)O)ccc1Cl [compound 5]

# From patent EP1497263B1, “ACYL-3-CARBOXYPHENYLUREA DERIVATIVES, METHOD FOR PRODUCTION AND USE THEREOF” (Sanofi-Aventis Deutschland GmbH, priority 2002, dated 2003)
